Test results reported in paper PMC10877631, “Retinylidene chromophore hydrolysis from mammalian visual and non-visual opsins” (The Journal of Biological Chemistry, 2024).

Experiments:
[1] = biological target: T1, native bRGR in bRPE microsomal membranes (Bos taurus, UniProt P47803); test: NaBH4 trapping, HPLC and LC-MS/MS after illumination; format: biochemical; settings: photoisomerization at 530 nm, then Schiff-base hydrolysis; pH 7.4, 140 mM NaCl; native microsomes
T1 construct: gene RGR; native, untagged, in bovine RPE microsomal membranes; chromophore site given as Lys256
T1 sequence (P47803 1-291): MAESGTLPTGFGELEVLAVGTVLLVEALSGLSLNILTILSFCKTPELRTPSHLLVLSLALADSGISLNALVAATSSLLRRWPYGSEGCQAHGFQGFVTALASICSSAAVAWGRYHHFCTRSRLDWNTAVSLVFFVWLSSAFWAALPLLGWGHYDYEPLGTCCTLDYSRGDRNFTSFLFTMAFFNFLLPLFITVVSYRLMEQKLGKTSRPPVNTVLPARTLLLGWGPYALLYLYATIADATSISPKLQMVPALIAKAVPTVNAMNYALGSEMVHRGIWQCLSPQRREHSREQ

hBlue-cone opsin = biological target: T2, hBlue-cone opsin (Homo sapiens, UniProt P03999); test: UV-Vis pigment spectrum; NaBH4 trapping and LC-MS/MS of retinyl peptide and retinyl-Lys; format: binding; settings: covalent Schiff base to helix VII Lys; dark state; LMNG
T2 construct: gene OPN1SW; recombinant, purified in LMNG; details only in supplement
T2 sequence (P03999 1-345): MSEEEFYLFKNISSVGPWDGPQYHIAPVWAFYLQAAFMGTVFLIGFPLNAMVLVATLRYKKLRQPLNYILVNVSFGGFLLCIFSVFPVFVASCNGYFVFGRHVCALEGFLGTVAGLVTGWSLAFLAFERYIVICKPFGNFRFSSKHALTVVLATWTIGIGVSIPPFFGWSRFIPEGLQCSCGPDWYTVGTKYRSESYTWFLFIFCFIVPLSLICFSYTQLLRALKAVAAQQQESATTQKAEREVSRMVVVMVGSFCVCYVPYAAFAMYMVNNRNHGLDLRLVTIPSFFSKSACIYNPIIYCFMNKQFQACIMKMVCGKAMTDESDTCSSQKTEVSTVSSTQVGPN

bRho = biological target: T3, bRho (Bos taurus, UniProt P02699); test: as above; format: binding; settings: covalent Schiff base to helix VII Lys; dark state; LMNG
T3 construct: gene RHO; native, from bovine rod outer segments, purified in LMNG
T3 sequence (P02699 whole entry): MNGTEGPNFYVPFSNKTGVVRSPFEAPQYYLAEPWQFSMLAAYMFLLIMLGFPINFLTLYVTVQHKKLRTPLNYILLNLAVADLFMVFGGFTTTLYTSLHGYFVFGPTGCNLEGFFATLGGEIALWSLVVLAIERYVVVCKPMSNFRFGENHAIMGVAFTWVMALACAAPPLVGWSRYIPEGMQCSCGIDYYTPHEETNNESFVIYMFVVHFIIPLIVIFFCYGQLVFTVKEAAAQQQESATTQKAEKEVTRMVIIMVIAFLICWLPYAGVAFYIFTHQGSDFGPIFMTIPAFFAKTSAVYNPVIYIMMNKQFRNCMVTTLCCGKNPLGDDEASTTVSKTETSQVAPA

hRed-cone opsin = biological target: T4, hRed-cone opsin (Homo sapiens, UniProt P04000); test: as above; format: binding; settings: covalent Schiff base to helix VII Lys; dark state; LMNG
T4 construct: gene OPN1LW; recombinant, purified in LMNG; details only in supplement
T4 sequence (P04000 1-364): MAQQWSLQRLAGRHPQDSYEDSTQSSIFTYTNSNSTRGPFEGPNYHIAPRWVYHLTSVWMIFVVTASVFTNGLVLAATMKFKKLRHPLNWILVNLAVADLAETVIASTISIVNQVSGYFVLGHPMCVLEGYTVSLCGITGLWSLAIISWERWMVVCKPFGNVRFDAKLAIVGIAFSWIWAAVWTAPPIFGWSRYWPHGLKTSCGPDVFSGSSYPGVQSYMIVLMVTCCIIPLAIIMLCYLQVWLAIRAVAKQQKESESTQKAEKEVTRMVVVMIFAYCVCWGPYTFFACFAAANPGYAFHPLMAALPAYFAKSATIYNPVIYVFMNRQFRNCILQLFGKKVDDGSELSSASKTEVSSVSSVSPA

[2] = biological target: T5, bRGR (recombinant, 1D4-tagged) (Bos taurus, UniProt P47803); test: UV-Vis pigment spectrum; NaBH4 trapping and LC-MS/MS of retinyl peptide; format: binding; settings: covalent Schiff base at Lys256; LMNG micelles; before illumination
T5 construct: gene RGR; chromophore site given as Lys256
T5 sequence (P47803 1-291): T1 sequence (P47803 1-291)

[3] = biological target: T1, native bRGR in bRPE microsomal membranes; test: NaBH4 trapping, proteinase K or pronase digestion, LC-MS/MS; format: binding; settings: covalent Schiff base at Lys256; native bovine RPE microsomes; before illumination

## CC1=C(/C=C/C(C)=C/C=C\C(C)=C\C=O)C(C)(C)CCC1 [11-cis-retinal]
[1]
  NaBH4 trapping, HPLC and LC-MS/MS after illumination: rapid hydrolytic production of 11-cis-retinal by bRGR in native membranes was recapitulated in this study
hBlue-cone opsin
  UV-Vis pigment spectrum; NaBH4 trapping and LC-MS/MS of retinyl peptide and reti: the resultant N^ε-retinyl-Lys was predominantly in the 11-cis configuration
bRho
  UV-Vis pigment spectrum; NaBH4 trapping and LC-MS/MS of retinyl peptide and reti: the resultant N^ε-retinyl-Lys was predominantly in the 11-cis configuration
hRed-cone opsin
  UV-Vis pigment spectrum; NaBH4 trapping and LC-MS/MS of retinyl peptide and reti: the resultant N^ε-retinyl-Lys was predominantly in the 11-cis configuration

## CC1=C(/C=C/C(C)=C/C=C/C(C)=C/C=O)C(C)(C)CCC1 [all-trans-retinal]
[2]
  UV-Vis pigment spectrum; NaBH4 trapping and LC-MS/MS of retinyl peptide: recombinantly produced bRGR adducted with all-trans-retinal was immunopurified in lauryl maltose neopentyl glycol (LMNG) micelles
[3]
  NaBH4 trapping, proteinase K or pronase digestion, LC-MS/MS: Microsomal bRGR reconstituted with slight excess of all-trans-retinal was analyzed by LC-MS/MS
